Our source for the IC50 values is patent US5700780A, “Antiviral peptide derivatives having a 2-oxoalkyl amino acid side chain” (Boehringer Ingelheim (Canada), Ltd., priority 1989, dated 1997).

By pIC50 is commonly meant the IC50 on a negative log10 scale, so that one unit is a factor of ten. Lower therefore signals a high IC50.

pIC50: −log10 of the molar value. Where a SMILES comes first, the peptide text is derived from it.

Chain of HSV-1 ribonucleotide reductase (P08543 whole entry): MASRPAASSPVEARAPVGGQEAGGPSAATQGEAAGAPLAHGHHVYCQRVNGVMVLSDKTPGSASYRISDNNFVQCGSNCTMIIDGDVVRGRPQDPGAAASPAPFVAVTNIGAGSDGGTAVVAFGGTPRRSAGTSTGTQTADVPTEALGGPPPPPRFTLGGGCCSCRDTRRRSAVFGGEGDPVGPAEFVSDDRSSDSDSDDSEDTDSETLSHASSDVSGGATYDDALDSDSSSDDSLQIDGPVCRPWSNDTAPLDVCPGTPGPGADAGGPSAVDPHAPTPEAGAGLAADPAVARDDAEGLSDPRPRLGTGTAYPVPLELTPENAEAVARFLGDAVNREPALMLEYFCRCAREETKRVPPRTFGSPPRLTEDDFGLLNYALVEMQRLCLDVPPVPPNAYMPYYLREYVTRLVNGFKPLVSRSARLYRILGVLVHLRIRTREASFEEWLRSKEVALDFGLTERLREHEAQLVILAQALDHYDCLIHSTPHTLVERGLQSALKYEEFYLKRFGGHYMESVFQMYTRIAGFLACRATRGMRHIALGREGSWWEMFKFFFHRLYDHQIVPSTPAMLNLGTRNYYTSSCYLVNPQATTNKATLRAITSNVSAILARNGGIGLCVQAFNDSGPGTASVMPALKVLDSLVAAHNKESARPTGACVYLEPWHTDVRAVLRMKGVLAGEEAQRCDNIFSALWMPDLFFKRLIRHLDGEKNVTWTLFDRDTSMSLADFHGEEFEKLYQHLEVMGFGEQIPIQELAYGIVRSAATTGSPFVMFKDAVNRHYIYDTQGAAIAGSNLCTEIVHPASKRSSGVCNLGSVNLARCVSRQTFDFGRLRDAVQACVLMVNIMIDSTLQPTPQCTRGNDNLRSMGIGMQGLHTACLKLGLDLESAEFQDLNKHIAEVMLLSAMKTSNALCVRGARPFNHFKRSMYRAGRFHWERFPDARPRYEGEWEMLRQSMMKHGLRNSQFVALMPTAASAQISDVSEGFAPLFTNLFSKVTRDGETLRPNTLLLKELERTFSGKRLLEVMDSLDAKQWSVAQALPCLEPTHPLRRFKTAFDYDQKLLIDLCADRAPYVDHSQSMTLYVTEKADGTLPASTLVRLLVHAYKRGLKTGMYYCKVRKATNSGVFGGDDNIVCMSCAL

This test concerns the target HSV-1 ribonucleotide reductase (Human herpesvirus 1, UniProt P08543). In words: biochemical. The source says: Inhibition of Herpes Simplex Virus (HSV, type 1) Ribonucleotide Reductase
HSV-1 ribonucleotide reductase (partially purified) was obtained from quiescent BHK-21/C13 cells infected with strain F HSV-1 virus at 10 plaque forming units/cell as described by E. A. Cohen et al., J. Gen. Virol., 66, 733 (1985).
The procedure described by P. Gaudreau et al., J. Biol, Chem., 262, 12413 (1987), was employed. […] The number of units of the enzyme preparation used in each assay was constant, based on the specific activity of the enzyme preparation.
In turn, `CCCCCCCC(=O)C[C@H](NC(=O)[C@@H](NC(=O)C(CC)CC)[C@@H](C)CC)C(=O)N[C@@H](CC(=O)O)C(=O)N[C@@H](CC(C)C)C(=O)O` [2-Ethylbutanoyl-Ile--NHCH(2-oxononyl)-CO--Asp--Leu--OH] showed a pIC50 of 4.62.
In turn, `CCCCCCCC(=O)C[C@H](NC(=O)[C@@H](NC(=O)C(CC)CC)C(C)(C)C)C(=O)N[C@H](C(=O)N[C@@H](CC(C)C)C(=O)O)C(C)(C)C(=O)O` [2-Ethylbutanoyl-Tbg--NHCH(2-oxononyl)-CO--NHCH[C(CH3)2 COOH]--CO--Leu--OH] showed a pIC50 of 5.92.
For the compound `CCCCCC(=O)C[C@H](NC(=O)[C@@H](NC(=O)C(CC)CC)C(C)(C)C)C(=O)N[C@@H](CC(=O)O)C(=O)N[C@@H](CC(C)C)C(=O)O` [2-Ethylbutanoyl-Tbg--NHCH(2-oxoheptyl)-CO--Asp--Leu--OH], the negative-log IC50 (pIC50) was 5.12. Compared with the last compound, the pIC50 is 0.80 log units lower.
For `CCCCCCCCCCCC(=O)C[C@H](NC(=O)[C@@H](NC(=O)[C@H](C(C)C)N(C)C(=O)CCc1ccccc1)[C@@H](C)CC)C(=O)N[C@@H](CC(=O)O)C(=O)N[C@@H](CC(C)C)C(N)=O` [PhCH2 CH2 CO--N--Me--Val--Ile--NHCH(2-oxotridecyl)-CO--Asp--Leu--NH2] (HELM PEPTIDE1{[O=C(CCc1ccccc1)[*:2]].[meV].I.[CCCCCCCCCCCC(=O)C[C@H](N[*:1])C(=O)[*:2]].D.L.[am]}$$$$V2.0), the pIC50 was 5.20.
`CCCCCCCC(=O)C[C@H](NC(=O)[C@@H](NC(=O)C(CC)CC)C(C)(C)C)C(=O)N[C@@H](CC(=O)O)C(=O)N[C@@H](CC(C)C)C(=O)O` [2-Ethylbutanoyl-Tbg--NHCH(2-oxononyl)-CO--Asp--Leu--OH] had a pIC50 of 5.35.
`CC[C@H](C)[C@H](NC(=O)[C@H](C(C)C)N(C)C(=O)CCc1ccccc1)C(=O)N[C@@H](CC(C)=O)C(=O)N[C@@H](CC(=O)O)C(=O)N[C@@H](CC(C)C)C(=O)O` [PhCH2 CH2 CO--N--Me--Val--Ile--NHCH(2-oxopropyl)-CO--Asp--Leu--OH] (HELM PEPTIDE1{[O=C(CCc1ccccc1)[*:2]].[meV].I.[CC(=O)C[C@H](N[*:1])C(=O)[*:2]].D.L}$$$$V2.0) showed a pIC50 of 5.89.
To `CCCCCCCCCCCC(=O)C[C@H](NC(=O)[C@@H](NC(=O)C(CC)CC)[C@@H](C)CC)C(=O)N[C@@H](CC(=O)O)C(=O)N[C@@H](CC(C)C)C(=O)O` [2-Ethylbutanoyl-Ile--NHCH(2-oxotridecyl)-CO--Asp--Leu--OH] belongs 5.07; to `CCC(CC)C(=O)N[C@H](C(=O)N[C@@H](CC(=O)C1CCCC1)C(=O)N[C@@H](CC(=O)O)C(=O)NCCC(C)(C)C)C(C)(C)C` [2-Ethylbutanoyl-Tbg--NHCH(2-cyclopentyl-2-oxoethyl)-CO--Asp--NHCH2 CH2 C(CH3)3], 4.64.
`CCCCCCCC(=O)C[C@H](NC(=O)[C@@H](NC(=O)[C@H](C(C)C)N(C)C(=O)CCc1ccccc1)[C@@H](C)CC)C(=O)N[C@@H](CC(=O)O)C(=O)N[C@@H](CC(C)C)C(=O)O` [PhCH2 CH2 CO--N--Me--Val--Ile--NHCH(2-oxononyl)-CO--Asp--Leu--OH] (HELM PEPTIDE1{[O=C(CCc1ccccc1)[*:2]].[meV].I.[CCCCCCCC(=O)C[C@H](N[*:1])C(=O)[*:2]].D.L}$$$$V2.0) showed a pIC50 of 6.38.
To `CC[C@H](C)[C@H](NC(=O)[C@H](C(C)C)N(C)C(=O)CCc1ccccc1)C(=O)N[C@@H](CC(=O)C1CCCC1)C(=O)N[C@@H](CC(=O)O)C(=O)N[C@@H](CC(C)C)C(=O)O` [PhCH2 CH2 CO--N--Me--Val--Ile--NHCH(2-cyclopentyl-2-oxoethyl)-CO--Asp--Leu--OH] (HELM PEPTIDE1{[O=C(CCc1ccccc1)[*:2]].[meV].I.[O=C(C[C@H](N[*:1])C(=O)[*:2])C1CCCC1].D.L}$$$$V2.0) belongs 6.74.
